Laboratory results taken from article PMC10620772, “Design, synthesis, and biological evaluation of new pyrimidine-5-carbonitrile derivatives as novel anti-cancer, dual EGFR^WT/COX-2 inhibitors with docking studies” (RSC Advances, 2023).

Experiments:
[1] = parameters: method as in PMID 26764192, PMID 22249410, PMID 21414695; settings: cited from earlier work
HepG2 = tested on: HepG2; parameters: method as in PMID 32115728, PMID 32959865; settings: antiproliferation; cited from earlier work
[2] = tested on: active caspase-3 in Colo 205 cells; assay: Caspase-3 ELISA; format: cell-based, human; settings: Colo_205, treated at IC50
From the text: Among the death proteases, the caspases family of cysteine-dependent aspartate-directed proteases is significant. There are multiple levels where caspase activation and activity are regulated.[43] Caspases are activated during apoptosis, which eventually results in cell death by deactivating a number of signals.[44] One of the crucial survival signals, EGFR, may be the target of caspase activation to ensure the completion of apoptosis.[45] Additionally, it has been reported that activating caspase-3 through COX-2 inhibition enhances apoptosis.[40] Therefore, the impact of the novel compounds on the level of caspase 3 was examined.
(1) Into the antibody coated wells add 100 μl of standard diluent buffer excepts wells wich detected to be the chromogen blank, then add 100 μl. […] (10) Decant liquid from wells then wash, (11) pipette 100 μl of chromogen substrate to all wells, The well fluid will start to become blue. (12) 30 minutes should be spent incubating at room temperature in the dark. (13) To each well, add 100 μl of stop solution. To mix, lightly tap the plate's edge. The well solution should transform from blue to yellow. (14) Read the absorbance of each well using a microtiter plate reader at 450 nm. (15) Draw the standard curve using a curve fitting program. (16) The standard curve can be used to determine the concentrations for unknown samples and controls.[55]

MALME-3M [3] = tested on: MALME-3M; parameters: method as in PMID 32115728, PMID 32959865; settings: cited from earlier work
SF-539 = assay: NCI60 antitumor screening; format: cell-based, human; settings: 10 μM one-dose
HCC-2998 = assay: NCI60 antitumor screening; format: cell-based, human; settings: 10 μM one-dose
TK-10 = assay: NCI60 antitumor screening; format: cell-based, human; settings: 10 μM one-dose
EKVX = assay: NCI60 antitumor screening; format: cell-based, human; settings: 10 μM one-dose
MDA-MB-468 = assay: NCI60 antitumor screening; format: cell-based, human; settings: 10 μM one-dose
T-47D = assay: NCI60 antitumor screening; format: cell-based, human; settings: 10 μM one-dose
MALME-3M [4] = assay: NCI60 antitumor screening; format: cell-based, human; settings: 10 μM one-dose
SW-620 = assay: NCI60 antitumor screening; format: cell-based, human; settings: 10 μM one-dose
NCI-H460 = assay: NCI60 antitumor screening; format: cell-based, human; settings: 10 μM one-dose
COLO 205 = assay: NCI60 antitumor screening; format: cell-based, human; settings: 10 μM one-dose
A549/ATCC = assay: NCI60 antitumor screening; format: cell-based, human; settings: 10 μM one-dose
SK-MEL-2 = assay: NCI60 antitumor screening; format: cell-based, human; settings: 10 μM one-dose
DU-145 = assay: NCI60 antitumor screening; format: cell-based, human; settings: 10 μM one-dose
M14 = assay: NCI60 antitumor screening; format: cell-based, human; settings: 10 μM one-dose
CCRF-CEM = assay: NCI60 antitumor screening; format: cell-based, human; settings: 10 μM one-dose
786–0 = assay: NCI60 antitumor screening; format: cell-based, human; settings: 10 μM one-dose
HT29 = assay: NCI60 antitumor screening; format: cell-based, human; settings: 10 μM one-dose
HCT-15 = assay: NCI60 antitumor screening; format: cell-based, human; settings: 10 μM one-dose
ACHN = assay: NCI60 antitumor screening; format: cell-based, human; settings: 10 μM one-dose
NCI-H322M = assay: NCI60 antitumor screening; format: cell-based, human; settings: 10 μM one-dose
NCI-H226 = assay: NCI60 antitumor screening; format: cell-based, human; settings: 10 μM one-dose
SK-MEL-5 = assay: NCI60 antitumor screening; format: cell-based, human; settings: 10 μM one-dose
SK-MEL-28 = assay: NCI60 antitumor screening; format: cell-based, human; settings: 10 μM one-dose
UACC-62 = assay: NCI60 antitumor screening; format: cell-based, human; settings: 10 μM one-dose
MDA-MB-231/ATCC = assay: NCI60 antitumor screening; format: cell-based, human; settings: 10 μM one-dose
NCI60 cell lines panel = assay: NCI60 antitumor screening, full panel; format: cell-based, human; settings: 10 μM one-dose, mean over NCI60
In short: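 Single-concentration screen at 10 μM across the NCI60 panel (leukaemia, NSCLC, colon, CNS, melanoma, ovarian, renal, prostate, breast). Results are expressed as percent growth inhibition (GI%) of treated lines.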

BT-549 = assay: NCI60 antitumor screening; format: cell-based, human; settings: 10 μM one-dose
MDA-MB-435 = assay: NCI60 antitumor screening; format: cell-based, human; settings: 10 μM one-dose
UACC-257 = assay: NCI60 antitumor screening; format: cell-based, human; settings: 10 μM one-dose
NCI/ADR-RES = assay: NCI60 antitumor screening; format: cell-based, human; settings: 10 μM one-dose
SF-295 = assay: NCI60 antitumor screening; format: cell-based, human; settings: 10 μM one-dose
SF-268 = assay: NCI60 antitumor screening; format: cell-based, human; settings: 10 μM one-dose
OVCAR-5 = assay: NCI60 antitumor screening; format: cell-based, human; settings: 10 μM one-dose
IGROV1 = assay: NCI60 antitumor screening; format: cell-based, human; settings: 10 μM one-dose
SR = assay: NCI60 antitumor screening; format: cell-based, human; settings: 10 μM one-dose
MOLT-4 = assay: NCI60 antitumor screening; format: cell-based, human; settings: 10 μM one-dose
HOP-62 = assay: NCI60 antitumor screening; format: cell-based, human; settings: 10 μM one-dose
A498 = assay: NCI60 antitumor screening; format: cell-based, human; settings: 10 μM one-dose
SNB-75 = assay: NCI60 antitumor screening; format: cell-based, human; settings: 10 μM one-dose
MCF7 = assay: NCI60 antitumor screening; format: cell-based, human; settings: 10 μM one-dose
RPMI-8226 = assay: NCI60 antitumor screening; format: cell-based, human; settings: 10 μM one-dose
SK-OV-3 = assay: NCI60 antitumor screening; format: cell-based, human; settings: 10 μM one-dose
HOP-92 = assay: NCI60 antitumor screening; format: cell-based, human; settings: 10 μM one-dose
NCI-H522 = assay: NCI60 antitumor screening; format: cell-based, human; settings: 10 μM one-dose
RXF 393 = assay: NCI60 antitumor screening; format: cell-based, human; settings: 10 μM one-dose
HCT-116 = assay: NCI60 antitumor screening; format: cell-based, human; settings: 10 μM one-dose
LOX IMVI = assay: NCI60 antitumor screening; format: cell-based, human; settings: 10 μM one-dose
HS 578T = assay: NCI60 antitumor screening; format: cell-based, human; settings: 10 μM one-dose
OVCAR-8 = assay: NCI60 antitumor screening; format: cell-based, human; settings: 10 μM one-dose
K-562 = assay: NCI60 antitumor screening; format: cell-based, human; settings: 10 μM one-dose
PC-3 = assay: NCI60 antitumor screening; format: cell-based, human; settings: 10 μM one-dose
SN12C = assay: NCI60 antitumor screening; format: cell-based, human; settings: 10 μM one-dose
OVCAR-3 = assay: NCI60 antitumor screening; format: cell-based, human; settings: 10 μM one-dose
SNB-19 = assay: NCI60 antitumor screening; format: cell-based, human; settings: 10 μM one-dose
HL-60(TB) = assay: NCI60 antitumor screening; format: cell-based, human; settings: 10 μM one-dose
OVCAR-4 = assay: NCI60 antitumor screening; format: cell-based, human; settings: 10 μM one-dose
UO-31 = assay: NCI60 antitumor screening; format: cell-based, human; settings: 10 μM one-dose
NCI-H23 = assay: NCI60 antitumor screening; format: cell-based, human; settings: 10 μM one-dose
U251 = assay: NCI60 antitumor screening; format: cell-based, human; settings: 10 μM one-dose
KM12 = assay: NCI60 antitumor screening; format: cell-based, human; settings: 10 μM one-dose
CAKI-1 = assay: NCI60 antitumor screening; format: cell-based, human; settings: 10 μM one-dose

COc1ccc(-c2nc(-c3ccc(Cl)cc3)[nH]c(=O)c2C#N)cc1 [I]
antinociceptive activity compared to control [1]: more than 88%

C=CCSc1nc(Nc2ccccc2)c(C#N)c(-c2ccccc2)n1 [E]
IC50 (HepG2): 3.56 µM

CN[C@@H]1C[C@H]2O[C@@](C)([C@@H]1OC)n1c3ccccc3c3c4c(c5c6ccccc6n2c5c31)C(=O)NC4 [Staurosporine, reference compound]
Caspase 3 [2]: 766.2 ± 10.4 pg·mL

CC(C)CSc1nc(Nc2ccc(C(=O)O)cc2)c(C#N)c(-c2ccccc2)n1 [F]
GI value (MALME-3M [3]): 152.04%

N#Cc1c(-c2ccc(F)cc2)nc(SCc2ccc([N+](=O)[O-])cc2)[nH]c1=O [2c, 4-(4-Fluorophenyl)-2-((4-nitrobenzyl)thio)-6-oxo-1,6-dihydropyrimidine-5-carbonitrile]
GI% (SF-539): — (GI% < 10)
GI% (HCC-2998): — (GI% < 10)
GI% (TK-10): — (GI% < 10)
GI% (EKVX): 12.04%
GI% (MDA-MB-468): — (GI% < 10)
GI% (T-47D): 23.03%
GI% (MALME-3M [4]): — (GI% < 10)
GI% (SW-620): 10.78%
GI% (NCI-H460): — (GI% < 10)
GI% (COLO 205): — (GI% < 10)
GI% (A549/ATCC): — (GI% < 10)
GI% (SK-MEL-2): — (GI% < 10)
GI% (DU-145): — (GI% < 10)
GI% (M14): — (GI% < 10)
GI% (CCRF-CEM): 15.45%
GI% (786–0): — (GI% < 10)
GI% (HT29): 37.56%
GI% (HCT-15): 13.42%
GI% (ACHN): — (GI% < 10)
GI% (NCI-H322M): — (GI% < 10)
GI% (NCI-H226): 22.53%
GI% (SK-MEL-5): 11.85%
GI% (SK-MEL-28): — (GI% < 10)
GI% (UACC-62): 11.42%
GI% (MDA-MB-231/ATCC): — (GI% < 10)
Mean GI% (NCI60 cell lines panel): — (GI% < 10)
GI% (BT-549): — (GI% < 10)
GI% (MDA-MB-435): — (GI% < 10)
GI% (UACC-257): — (GI% < 10)
GI% (NCI/ADR-RES): 12.03%
GI% (SF-295): 10.37%
GI% (SF-268): — (GI% < 10)
GI% (OVCAR-5): — (GI% < 10)
GI% (IGROV1): — (GI% < 10)
GI% (SR): — (GI% < 10)
GI% (MOLT-4): 24.34%
GI% (HOP-62): — (GI% < 10)
GI% (A498): — (GI% < 10)
GI% (SNB-75): — (GI% < 10)
GI% (MCF7): — (GI% < 10)
GI% (RPMI-8226): 14.16%
GI% (SK-OV-3): — (GI% < 10)
GI% (HOP-92): 33.01%
GI% (NCI-H522): 30.52%
GI% (RXF 393): — (GI% < 10)
GI% (HCT-116): 22.23%
GI% (LOX IMVI): 14.24%
GI% (HS 578T): — (GI% < 10)
GI% (OVCAR-8): — (GI% < 10)
GI% (K-562): 31.45%
GI% (PC-3): 18.97%
GI% (SN12C): 14.07%
GI% (OVCAR-3): — (GI% < 10)
GI% (SNB-19): — (GI% < 10)
GI% (HL-60(TB)): 49.95%
GI% (OVCAR-4): — (GI% < 10)
GI% (UO-31): 11.53%
GI% (NCI-H23): — (GI% < 10)
GI% (U251): 13.78%
GI% (KM12): — (GI% < 10)
GI% (CAKI-1): 10.99%
